Experiments:
[1] = test system: normal human fibroblasts (BJ); experiment: Cytotoxicity assay (Alamar Blue), BJ; type: cell-based; conditions: BJ cells, 72 h of treatment, in DMF
Description: (§1) All new platinum(II) complexes were screened for cytotoxic activity against following tumor cell lines: T-lymphoblastic leukemia (CEM), epithelial breast carcinoma (MCF7), and cervical carcinoma cell lines (HeLa) (Table 2). A control of cytotoxicity was done with normal human fibroblasts (BJ) and human umbilical vein endothelial cells (HUVEC). The cytotoxicity of all substances in BJ and HUVEC was very similar. […] Its sensitivity against HeLa cell line (7.0 µM) was better than that of cisplatin (11.4 µM). However, the toxicity of 23a against normal human cells (BJ and HUVEC) was similar to that of cisplatin. […] Taking into account lack of activity of cholic and hyodeoxycholic acids-based complexes at studied concentrations (against all tested cell lines IC50 > 50 µM) we can suppose that modifications of bile acids should be focused on the most lipophilic lithocholic acid derivatives. The results presented here provide an inspiration for further studies in this area.
(§2) Cisplatin derivatives were evaluated for their cytotoxic activities in vitro in following cell lines derived from various tumors: T-lymphoblastic leukemia (CEM), epithelial breast carcinoma (MCF7) and cervical carcinoma cell lines (HeLa) (all from ECACC, UK) and also in normal human fibroblasts (BJ; from ATCC, USA). Human umbilical vein endothelial cells (HUVEC) were a kind gift from Prof Jitka Ulrichová (Medical Faculty, Palacký University, Olomouc, Czech Republic). HUVEC were grown in ECPM medium (Provitro, Berlin, Germany). Six serial 3-fold dilutions in triplicate of each drug in DMF was administered in every cell line for 72 h. Alamar Blue dye was used for staining of living cells only. IC50 values (50% inhibitory concentrations) were calculated as the proportions of surviving cells. A detailed procedure for the cytotoxicity assay was described previously, except for using Alamar Blue dye instead of Calcein AM [37]. Briefly, the percentage of surviving cells in each well was calculated by dividing the intensity of the fluorescence signals from the exposed wells by the intensity of signals from control wells and multiplying by 100. These ratios were then used to construct dose–response curves, from which IC50 values, i.e., concentrations of the respective compounds that were lethal to 50% of the tumor cells, were calculated. The results obtained from cytotoxicity assays are shown in Table 2 (mean values ± SD obtained from three independent experiments performed in triplicate).

[2] = test system: epithelial breast carcinoma (MCF7); experiment: Cytotoxicity assay (Alamar Blue), MCF7; type: cell-based, human; conditions: MCF7 cells, 72 h of treatment, in DMF
Description: as §1, §2

[3] = test system: T-lymphoblastic leukemia (CEM); experiment: Cytotoxicity assay (Alamar Blue), CEM; type: cell-based, human; conditions: CEM cells, 72 h of treatment, in DMF
Description: as §1, §2

[4] = test system: cervical carcinoma cell lines (HeLa); experiment: Cytotoxicity assay (Alamar Blue), HeLa; type: cell-based, human; conditions: HeLa cells, 72 h of treatment, in DMF
Description: as §1, §2

[5] = test system: human umbilical vein endothelial cells (HUVEC); experiment: Cytotoxicity assay (Alamar Blue), HUVEC; type: cell-based; conditions: 72 h of treatment, in DMF
Description: as §1, §2

[6] = test done at temperature 37 °C due to solubility problems

| Compound | melting point [°C] | IC50 ([1]; mean ± S.D.) [µM] | IC50 ([2]; mean ± S.D.) [µM] | IC50 ([3]; mean ± S.D.) [µM] | IC50 ([4]; mean ± S.D.) [µM] | IC50 ([5]; mean ± S.D.) [µM] | also measured |
| --- | --- | --- | --- | --- | --- | --- | --- |
| C[C@H](CCCNCCN)[C@H]1CC[C@H]2[C@@H]3CCC4C[C@H](O)CC[C@]4(C)[C@H]3CC[C@]12C (stereo partly drawn) | 107 to 110 | – | – | – | – | – | – |
| C[C@H](CCCNCCN)[C@H]1CC[C@H]2[C@@H]3CCC4C[C@H](O)CC[C@]4(C)[C@H]3C[C@H](O)[C@]12C (stereo partly drawn) | 70 to 72 | – | – | – | – | – | – |
| C[C@H](CCCNCCN)[C@H]1CC[C@H]2[C@@H]3C[C@H](O)C4C[C@H](O)CC[C@]4(C)[C@H]3CC[C@]12C (stereo partly drawn) | 72 to 74 | – | – | – | – | – | – |
| C[C@H](CCCNCCCN)[C@H]1CC[C@H]2[C@@H]3CCC4C[C@H](O)CC[C@]4(C)[C@H]3CC[C@]12C (stereo partly drawn) | 92 to 94 | – | – | – | – | – | – |
| C[C@H](CCCNCCCN)[C@H]1CC[C@H]2[C@@H]3CCC4C[C@H](O)CC[C@]4(C)[C@H]3C[C@H](O)[C@]12C (stereo partly drawn) | 64 to 66 | – | – | – | – | – | – |
| N.N.[Cl][Pt][Cl] [cisplatin] | – | 6.9 ± 0.9 | 7.7 ± 1.7 | 0.8 ± 0.1 | 11.4 ± 3.8 | 5.5 ± 1.1 | – |
| cis-Dichloro-24-[(N-2′-aminoeth-1′-yl-κN)aminocholan-3α-ol-κN]platinum(II) [22a] | – | – | – | – | – | – | IC50 [1, 6]: > 50 µM; IC50 [2, 6]: > 50 µM; IC50 [3, 6]: 40.2 ± 2.6 µM; IC50 [4, 6]: > 50 µM; IC50 [5, 6]: > 50 µM |
| cis-Dichloro-24-[(N-2′-aminoeth-1′-yl-κN)aminocholane-3α,12α-diol-κN]platinum(II) [22b] | – | 36.6 ± 5.1 | 20.5 ± 3.1 | 37.1 ± 6.8 | 35.5 ± 5.3 | 38.2 ± 0.6 | – |
| cis-Dichloro-24-[(N-3′-aminoprop-1′-yl-κN)aminocholan-3α-ol-κN]platinum(II) [23a] | – | 6.3 ± 0.8 | 7 ± 0.5 | 3.6 ± 0.1 | 7 ± 0.2 | 6.9 ± 0.6 | – |
| cis-Dichloro-24-[(N-3′-aminoprop-1′-yl-κN)aminocholane-3α,12α-diol-κN]platinum(II) [23b] | – | 42.5 ± 3.2 | 23.3 ± 4.7 | 31.6 ± 3.5 | 36.2 ± 4.3 | 34.4 ± 5.6 | – |

From publication PMC7036801, “Synthesis of New Cisplatin Derivatives from Bile Acids” (Molecules, 2020)
